The source of these data is ChEMBL document CHEMBL3102743, “Regulation of crosstalk between epithelial to mesenchymal transition molecules and MMP-9 mediates the antimetastatic activity of anethole in DU145 prostate cancer cells” (J Nat Prod, 2014).

Activity calls are given as the source filed them. The rule behind the calls is not given here.

Data set [1] concerns DU-145. The experiment in a line: Antimetastatic activity in human DU145 cells assessed as increase of E-cadherin expression at 100 uM after 24 hrs by immunofluorescence analysis in presence of TGF-beta. The class given is functional, cell-based.
The subject of data set [2] is DU-145. The experiment in a line: Antimetastatic activity in human DU145 cells assessed as reduction of vimentin expression at 100 uM after 24 hrs by Western blotting in presence of TGF-beta. The class given is functional, cell-based.
Data set [3] has as its system DU-145. The experiment in a line: Antimetastatic activity in human DU145 cells assessed as reduction of twist expression at 100 uM after 24 hrs by Western blotting in presence of TGF-beta. The class given is functional, cell-based. On the technique in general: A western blot detects proteins with antibodies after separation by electrophoresis.
Data set [4] relates to DU-145. Nature of the data set: Antimetastatic activity in human DU145 cells assessed as increase of E-cadherin expression at 100 uM after 24 hrs by Western blotting in presence of TGF-beta. The class given is functional, cell-based.
In data set [5] the test system is DU-145. Nature of the data set: Antiinvasive activity in human DU145 cells assessed as reduction of number of invaded cells through matrigel at 100 uM after 8 hrs by Boyden chamber invasion assay in presence of TGF-beta. In kind it is functional, cell-based.
The test system of data set [6] is DU-145. Nature of the data set: Antimetastatic activity in human DU145 cells assessed as decrease of MMP9 expression at 100 uM in presence of TGF-beta. In kind it is functional, cell-based.
Data set [7] relates to DU-145. The experiment in a line: Antimetastatic activity in MMP9 siRNA transfected human DU145 cells assessed as increase of vimentin expression at 25 to 100 uM by Western blotting. In kind it is functional, cell-based.
The subject of data set [8] is DU-145. Nature of the data set: Antimetastatic activity in MMP9 siRNA transfected human DU145 cells assessed as increase of E-cadherin expression at 25 to 100 uM by Western blotting. The class given is functional, cell-based.
Data set [9] addresses Matrix metalloproteinase-9 (Homo sapiens) (UniProt P14780). The experiment in a line: Inhibition of MMP9 in human DU145 cells after 24 hrs by SDS-PAGE gelatin zymography assay. The settings on record: DU-145. In kind it is cell-based.
The subject of data set [10] is DU-145. Nature of the data set: Antimetastatic activity in human DU145 cells assessed as decrease of MMP9 mRNA expression at 25 to 100 uM by RT-PCR analysis. The class given is functional, cell-based.
For data set [11], the system named is DU-145. The experiment in a line: Antimetastatic activity in human DU145 cells assessed as decrease of PI3K/Akt expression by Western blotting. In kind it is functional, cell-based.
The test system of data set [12] is DU-145. The experiment in a line: Antimetastatic activity in human DU145 cells assessed as decrease of snail mRNA expression at 25 to 100 uM by RT-PCR analysis. The class given is functional, cell-based.
In data set [13] the test system is DU-145. Nature of the data set: Antimetastatic activity in human DU145 cells assessed as decrease of twist mRNA expression at 25 to 100 uM by RT-PCR analysis. In kind it is functional, cell-based.
Data set [14] relates to DU-145. Nature of the data set: Antimetastatic activity in human DU145 cells assessed as decrease of vimentin mRNA expression at 25 to 100 uM by RT-PCR analysis. In kind it is functional, cell-based.
Data set [15] deals with DU-145. The experiment in a line: Antimetastatic activity in human DU145 cells assessed as increase of E-cadherin mRNA expression at 25 to 100 uM by RT-PCR analysis. The class given is functional, cell-based.
Data set [16] relates to DU-145. The experiment in a line: Antimetastatic activity in human DU145 cells assessed as decrease of twist expression at 25 to 100 uM by Western blotting. In kind it is functional, cell-based.
The test system of data set [17] is DU-145. Nature of the data set: Antimetastatic activity in human DU145 cells assessed as decrease of vimentin expression at 25 to 100 uM by Western blotting. The class given is functional, cell-based.
Data set [18] deals with DU-145. Nature of the data set: Antimetastatic activity in human DU145 cells assessed as increase of E-cadherin expression at 25 to 100 uM by Western blotting. The class given is functional, cell-based.
Data set [19] deals with DU-145. The experiment in a line: Antimigratory activity in human DU145 cells at 100 uM by wound-healing assay. In kind it is functional, cell-based.
Data set [20] has as its system DU-145. The experiment in a line: Antiinvasive activity in human DU145 cells assessed as reduction of number of invaded cells through matrigel at 25 to 100 uM after 8 hrs by Boyden chamber invasion assay. The class given is functional, cell-based.
Data set [21] relates to DU-145. The experiment in a line: Inhibition of cell adhesion in human DU145 cells in vitronectin-coated plates at 25 to 100 uM. The class given is functional, cell-based.
The subject of data set [22] is DU-145. Nature of the data set: Cytotoxicity against human DU145 cells assessed as cell viability up to 200 uM after 24 hrs by MTT assay. The class given is cell-based. The note with it: du-145, 24 h.

Matrix metalloproteinase-9 (Homo sapiens), sequence (P14780 whole entry): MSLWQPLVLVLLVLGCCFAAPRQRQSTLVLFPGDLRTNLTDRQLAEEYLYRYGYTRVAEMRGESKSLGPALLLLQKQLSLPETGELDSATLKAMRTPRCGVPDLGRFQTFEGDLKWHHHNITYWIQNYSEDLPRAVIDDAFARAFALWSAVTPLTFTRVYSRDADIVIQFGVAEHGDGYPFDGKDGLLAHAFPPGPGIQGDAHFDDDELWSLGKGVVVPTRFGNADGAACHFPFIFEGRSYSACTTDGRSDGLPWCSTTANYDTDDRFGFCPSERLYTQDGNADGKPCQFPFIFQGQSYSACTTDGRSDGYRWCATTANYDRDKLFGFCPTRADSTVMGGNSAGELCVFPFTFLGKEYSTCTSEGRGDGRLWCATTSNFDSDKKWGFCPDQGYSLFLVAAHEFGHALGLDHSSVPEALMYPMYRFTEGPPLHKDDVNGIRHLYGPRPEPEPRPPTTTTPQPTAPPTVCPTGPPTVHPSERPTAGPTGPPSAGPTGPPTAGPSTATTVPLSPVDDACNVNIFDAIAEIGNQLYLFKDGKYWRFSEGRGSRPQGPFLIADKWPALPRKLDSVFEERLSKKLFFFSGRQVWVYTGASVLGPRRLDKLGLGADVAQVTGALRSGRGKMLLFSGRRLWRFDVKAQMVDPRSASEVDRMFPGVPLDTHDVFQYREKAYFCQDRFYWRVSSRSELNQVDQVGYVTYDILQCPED

With `C/C=C/c1ccc(OC)cc1` [ANETHOLE], the outcome in data set [1], in data set [2], in data set [3], in [4], in data set [5] and in [6] was inactive. Moreover, the result in [7] and in data set [8] was inactive. Also, the inhibition result in [9] is “Dose-dependent effect”. The outcome in [10], in data set [12], in [13], in data set [14], in data set [15] and in data set [16] was Active. Moreover, the outcome in data set [17], in data set [18], in data set [19] and in data set [20] was Active. Besides, the figures for the Activity result in data set [11] and in [22] were “Dose-dependent effect” and “Non-toxic”, respectively. The inhibition result in data set [21] is “Active”.
